{"source": "patent US6143719A", "about": "“Bradykinin analogs as selective thrombin inhibitors” (The Regents of the University of Michigan, priority 1996, dated 2000)", "target": "T1, thrombin receptor (Homo sapiens, UniProt P25116)", "T1 construct": "endogenous in cells; host or cells: washed platelets from fresh blood", "T1 sequence (P25116 22-425)": "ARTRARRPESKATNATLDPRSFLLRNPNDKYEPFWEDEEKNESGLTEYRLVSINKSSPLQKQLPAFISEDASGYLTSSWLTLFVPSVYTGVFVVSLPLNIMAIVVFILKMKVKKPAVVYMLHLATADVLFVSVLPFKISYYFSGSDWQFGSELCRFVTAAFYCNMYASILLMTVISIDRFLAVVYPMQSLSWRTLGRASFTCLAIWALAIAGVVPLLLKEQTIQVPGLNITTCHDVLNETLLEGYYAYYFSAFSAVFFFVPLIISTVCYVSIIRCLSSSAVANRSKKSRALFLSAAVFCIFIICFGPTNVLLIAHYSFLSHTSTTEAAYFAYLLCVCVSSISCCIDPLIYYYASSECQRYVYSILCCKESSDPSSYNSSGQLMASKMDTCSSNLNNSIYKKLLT", "experiment": "flow cytometry of thrombin receptor epitopes (SPAN12, ATAP138) on α-thrombin activated platelets", "type": "cell-based", "conditions": "peptide 1 mM, α-thrombin 1 nM", "protocol": "Flow cytometry studies were performed to determine whether BK analogs prevent α-thrombin from eliminating an epitope on the thrombin receptor which is lost following α-thrombin cleavage- of the receptor. SPAN12 is an antibody to the thrombin receptor on platelets, which is specific for such an epitope. Studies were also performed to determine the effect of BK analogs on an epitope recognized by monoclonal antibody ATAP 138. The antibody is directed to an epitope on the thrombin receptor which is preserved after α-thrombin cleaves the receptor (FIGS. 7A-7D).\nMonoclonal antibody SPAN12 was reared to the 12 amino acids, Asn-Ala-Thr-Leu-Asp-Pro-Arg-Ser-Phe-Leu-Leu-Arg (SEQ ID NO:2), that bridge the α-thrombin cleavage site on the thrombin receptor by the methods of Molinot et al., J. Biol. Chem. 270:ln Press, 1995. […]\nMouse IgG and an antibody to the epitope CD62 were used as controls. […] The fluorescence of bound FITC-anti-IgG to platelets was monitored on an Epics-C flow cytometer (Coulter Electronics, Hialeah, Fla.). Light scatter and fluorescence channels were set at logarithmic gain. […] Green fluorescence was observed through a 525 nm band pass filter. The relative fluorescence intensity of at least 15,000 platelets was analyzed in each sample. […]", "note": "Ends that are not written are not given here.", "data": [{"sequence": "RPPGFSPFR [BK, bradykinin]", "values": [{"measurement": "loss of SPAN12 epitope of thrombin receptor on α-thrombin activated platelets", "value": "prevents the loss of the epitope"}]}]}
